According to patent publication US20220396577A1, “NOVEL SUBSTITUTED 1,3-8-TRIAZASPIRO[4,5] DECANE-2,4-DIONE COMPOUNDS AS INDOLEAMINE 2,3-DIOXYGENASE (IDO) AND/OR TRYPTOPHAN 2,3-DIOXYGENASE (TDO) INHIBITORS” (Merck Sharp & Dohme LLC, priority 2019, published 2022):

Assays:
Type in all cases: biochemical
[1] = molecular target: CLK2 (Homo sapiens, UniProt P49760); assay: Off-target kinase panel, ZLYTE: CLK2; conditions: read-out: Estimated IC50 (uM) CLK2
From the text: (§1) The activity data was obtained in a panel of 265 and 264 for compounds 1-1 and CC-1, respectively, using the ZLYTE and ADAPTA assay methods indicated in the table below.
(§2) The ZLYTE biochemical assay employs a fluorescence-based, coupled-enzyme format and is based on the differential sensitivity of phosphorylated and non-phosphorylated peptides to proteolytic cleavage. The peptide substrate is labeled with two fluorophores—one at each end—that make up a Fluorescence Resonance Energy Transfer (FRET) pair.
(§3) In the primary reaction, the kinase transfers the gamma-phosphate of ATP to a single tyrosine, serine or threonine residue in a synthetic FRET-peptide. In the secondary reaction, a site-specific protease recognizes and cleaves non-phosphorylated FRET-peptides. Phosphorylation of FRET-peptides suppresses cleavage by the Development Reagent. […] A ratiometric method, which calculates the ratio (the Emission Ratio) of donor emission to acceptor emission after excitation of the donor fluorophore at 400 nm, is used to quantitate reaction progress, as shown in the equation below. […]
(§4) Both cleaved and uncleaved FRET-peptides contribute to the fluorescence signals and therefore to the Emission Ratio. The extent of phosphorylation of the FRET-peptide can be calculated from the Emission Ratio. […]
(§5) 10. Read on fluorescence plate reader and analyze the data.

[2] = molecular target: RPS6KB1 (Homo sapiens, UniProt P23443); assay: Off-target kinase panel, ZLYTE: RPS6KB1; conditions: read-out: Estimated IC50 (uM) RPS6KB1
Sequence of RPS6KB1 (P23443 whole entry): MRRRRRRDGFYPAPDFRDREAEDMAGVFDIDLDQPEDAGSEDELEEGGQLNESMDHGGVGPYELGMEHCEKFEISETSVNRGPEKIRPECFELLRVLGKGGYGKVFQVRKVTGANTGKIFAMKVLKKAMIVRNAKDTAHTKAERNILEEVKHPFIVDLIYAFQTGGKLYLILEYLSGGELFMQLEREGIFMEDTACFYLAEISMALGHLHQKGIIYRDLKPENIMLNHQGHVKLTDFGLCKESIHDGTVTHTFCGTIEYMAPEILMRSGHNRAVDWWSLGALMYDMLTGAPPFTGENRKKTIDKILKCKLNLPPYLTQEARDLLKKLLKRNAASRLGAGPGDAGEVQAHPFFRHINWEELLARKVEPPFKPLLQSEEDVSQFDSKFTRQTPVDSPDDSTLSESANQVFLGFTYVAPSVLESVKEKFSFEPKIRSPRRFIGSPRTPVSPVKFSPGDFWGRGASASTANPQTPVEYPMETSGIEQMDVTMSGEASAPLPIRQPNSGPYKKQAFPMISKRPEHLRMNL
From the text: as §1, §2, §3, §4, §5

[3] = molecular target: T1, SGK2 (Homo sapiens, UniProt Q9HBY8); assay: Off-target kinase panel, ZLYTE: SGK2; conditions: read-out: Estimated IC50 (uM) SGK2
T1 sequence (Q9HBY8 1-367): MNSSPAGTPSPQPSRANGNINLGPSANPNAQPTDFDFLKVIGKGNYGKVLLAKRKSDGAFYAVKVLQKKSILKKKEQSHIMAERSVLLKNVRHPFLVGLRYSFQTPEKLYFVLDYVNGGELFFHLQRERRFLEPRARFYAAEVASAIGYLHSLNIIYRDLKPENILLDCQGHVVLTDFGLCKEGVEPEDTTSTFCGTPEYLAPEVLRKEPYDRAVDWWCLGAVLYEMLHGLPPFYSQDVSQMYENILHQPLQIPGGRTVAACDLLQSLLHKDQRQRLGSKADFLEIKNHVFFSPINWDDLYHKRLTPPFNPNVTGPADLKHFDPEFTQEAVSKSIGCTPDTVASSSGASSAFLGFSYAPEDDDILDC
From the text: as §1, §2, §3, §4, §5

[4] = molecular target: CDK5/P35 (Homo sapiens, UniProt Q00535); assay: Off-target kinase panel, ZLYTE: CDK5/P35; conditions: read-out: Estimated IC50 (uM) CDK5/P35
Sequence of CDK5/P35 (Q00535 whole entry): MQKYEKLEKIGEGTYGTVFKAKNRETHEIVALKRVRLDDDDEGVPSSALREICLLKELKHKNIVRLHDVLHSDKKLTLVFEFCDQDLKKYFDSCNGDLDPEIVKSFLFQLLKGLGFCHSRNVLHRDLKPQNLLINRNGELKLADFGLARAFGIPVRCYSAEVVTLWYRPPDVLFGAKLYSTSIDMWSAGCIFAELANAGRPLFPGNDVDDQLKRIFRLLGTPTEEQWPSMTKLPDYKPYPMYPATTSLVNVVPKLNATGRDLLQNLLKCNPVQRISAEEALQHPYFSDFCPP
Sequence of CDK5/P35 (Q15078 2-307 partner limits assumed): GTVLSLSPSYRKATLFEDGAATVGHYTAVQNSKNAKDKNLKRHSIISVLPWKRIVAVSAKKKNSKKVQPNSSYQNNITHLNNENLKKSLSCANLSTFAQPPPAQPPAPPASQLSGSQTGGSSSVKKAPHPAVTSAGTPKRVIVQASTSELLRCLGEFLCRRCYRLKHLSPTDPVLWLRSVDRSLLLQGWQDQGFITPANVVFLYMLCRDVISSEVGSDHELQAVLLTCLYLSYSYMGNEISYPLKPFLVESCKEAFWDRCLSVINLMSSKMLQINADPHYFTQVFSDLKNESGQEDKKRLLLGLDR
From the text: as §1, §2, §3, §4, §5

[5] = molecular target: T2, FLT3(D835Y) (Homo sapiens, UniProt P36888, D835Y); assay: Off-target kinase panel, ZLYTE: FLT3(D835Y); conditions: read-out: Estimated IC50 (uM) FLT3(D835Y)
T2 sequence (P36888 27-993 D835Y): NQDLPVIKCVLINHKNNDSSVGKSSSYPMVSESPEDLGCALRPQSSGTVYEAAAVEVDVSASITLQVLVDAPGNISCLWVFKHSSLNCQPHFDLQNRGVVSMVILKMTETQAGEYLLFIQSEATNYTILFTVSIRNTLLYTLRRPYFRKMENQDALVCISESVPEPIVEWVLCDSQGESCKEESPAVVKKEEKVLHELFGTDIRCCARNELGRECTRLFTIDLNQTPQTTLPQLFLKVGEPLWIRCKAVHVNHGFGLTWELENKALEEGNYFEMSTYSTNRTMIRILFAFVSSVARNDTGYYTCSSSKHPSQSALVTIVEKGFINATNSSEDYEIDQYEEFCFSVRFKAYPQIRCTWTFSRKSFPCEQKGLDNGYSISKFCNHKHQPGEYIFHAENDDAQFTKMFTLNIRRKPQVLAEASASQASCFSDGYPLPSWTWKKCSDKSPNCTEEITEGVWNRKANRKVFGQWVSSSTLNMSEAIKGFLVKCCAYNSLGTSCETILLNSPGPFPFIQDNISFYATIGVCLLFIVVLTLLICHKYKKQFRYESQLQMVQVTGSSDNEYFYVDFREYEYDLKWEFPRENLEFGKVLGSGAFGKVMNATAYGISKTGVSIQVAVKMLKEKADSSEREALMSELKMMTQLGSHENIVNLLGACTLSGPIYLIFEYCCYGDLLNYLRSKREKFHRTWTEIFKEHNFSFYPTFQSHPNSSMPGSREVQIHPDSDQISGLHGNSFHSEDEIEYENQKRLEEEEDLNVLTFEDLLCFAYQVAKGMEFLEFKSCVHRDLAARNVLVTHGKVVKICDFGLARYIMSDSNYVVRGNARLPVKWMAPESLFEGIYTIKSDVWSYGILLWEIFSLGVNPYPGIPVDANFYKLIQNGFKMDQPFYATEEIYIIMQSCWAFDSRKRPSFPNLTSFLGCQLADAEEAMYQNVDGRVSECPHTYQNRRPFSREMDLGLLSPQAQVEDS
From the text: as §1, §2, §3, §4, §5

Sequence of CLK2 (P49760 whole entry): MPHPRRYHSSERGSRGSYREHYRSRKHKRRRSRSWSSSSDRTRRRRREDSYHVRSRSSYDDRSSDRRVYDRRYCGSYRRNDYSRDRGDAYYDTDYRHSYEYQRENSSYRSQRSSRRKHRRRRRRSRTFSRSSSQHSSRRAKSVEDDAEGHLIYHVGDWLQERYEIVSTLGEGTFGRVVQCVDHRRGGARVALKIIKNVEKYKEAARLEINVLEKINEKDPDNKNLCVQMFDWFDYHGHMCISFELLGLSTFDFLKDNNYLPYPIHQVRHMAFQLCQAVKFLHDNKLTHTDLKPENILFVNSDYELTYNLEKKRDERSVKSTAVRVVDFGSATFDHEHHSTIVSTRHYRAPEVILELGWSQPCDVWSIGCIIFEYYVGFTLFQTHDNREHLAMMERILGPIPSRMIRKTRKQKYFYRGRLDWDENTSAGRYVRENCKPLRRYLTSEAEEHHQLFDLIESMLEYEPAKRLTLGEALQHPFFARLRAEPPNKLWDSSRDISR

Work on `C[C@@H]1CN(c2cc(Br)cc3[nH]ncc23)CC[C@]12NC(=O)NC2=O` (single isomer, unassigned) [Compound 1-1] yielded an IC50 [1] of 0.73 µM, an IC50 [2] of 1.9 µM and an IC50 [3] of over 2 µM. For the same compound, the IC50 [4] was over 2 µM.

`O=C1NC(=O)C2(CCN(c3cc(Cl)cc4[nH]ncc34)CC2)N1` [CC-1] gave an IC50 [1] of 0.35 µM, an IC50 [2] of 1.7 µM and an IC50 [5] of 1.5 µM. For the same compound, the IC50 [3] was 1.3 µM and the IC50 [4] was 1.6 µM.
